Measurements taken from US20250177383A1, “DI-CYCLOPROPYL BASED IL-17A MODULATORS AND USES THEREOF” (DICE ALPHA, INC., priority 2022, published 2025).

Legend:
[1] = target: T1, IL-17A/A (Homo sapiens, UniProt Q16552); assay: IL-17A/A HEK-Blue Cell Assay; format: cell-based; settings: HEK-Blue IL-17 reporter cells, IL-17A/A stimulation, 20 hours, SEAP readout; read-out: IL17 AA HEK-5 pIC50 (converted)
T1 sequence (Q16552 24-155): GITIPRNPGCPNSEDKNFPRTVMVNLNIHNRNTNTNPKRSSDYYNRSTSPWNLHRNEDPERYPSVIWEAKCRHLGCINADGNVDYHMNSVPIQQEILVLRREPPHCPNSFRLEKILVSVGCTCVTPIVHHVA
Method in brief: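 Cells co-expressing IL-17RA, IL-17RC and Act1 received titrated compound, top final 10 uM in 0.1% DMSO, immediately before IL-17A/A stimulation.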

[2] = target: T2, IL-17A/F (Homo sapiens, UniProt Q16552+Q96PD4); assay: IL-17A/F HEK-Blue Cell Assay; format: cell-based; settings: HEK-Blue IL-17 reporter cells, IL-17A/F stimulation, 20 hours, SEAP readout; for IC50: read-out: IL17AF HEK Blue pIC50 (converted)
T2 sequence (Q16552 24-155): T1 sequence (Q16552 24-155)
T2 sequence (Q96PD4 31-163): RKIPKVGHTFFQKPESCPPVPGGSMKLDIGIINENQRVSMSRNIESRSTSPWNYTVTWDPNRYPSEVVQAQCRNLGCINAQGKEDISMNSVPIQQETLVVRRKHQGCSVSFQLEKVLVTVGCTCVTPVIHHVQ
Procedure: The HEK-Blue IL-17 reporter cell line (Fisher #NC1408637) was used for cell-based IL-17A/F inhibition assays. Cells were grown and prepared for assays according to the manufacturer's instructions. This cell line consists of HEK 293 cells that were designed to expressed IL-17RA, IL-17R^C, and the ActI adapter molecule, the combination of which, when stimulated by IL-17A/A activates a NFκB promoter and drives expression of a recombinant Secreted Alkaline Phosphatase (SEAP) geneprotein. Media from the cells is then added to a development reagent (Quanti-Blue Substrate, Fisher #NC9711613), and read at A630.
Compounds were titrated in DMSO and added to the cells immediately before adding IL-17A/A (Custom from R&D systems, untagged IL-17A/F+BSA as a carrier protein). The cells, compound, and IL-17A/A were then incubated for 20 hours before media was removed for SEAP analysis. The resulting inhibition curve was then analyzed using a Dotmatics screening protocol, and IC50 values were determined using a 4-parameter nonlinear fit. DMSO was added to a universal final concentration of 0.1% to optimize background.

SMILES	IC50 [1] [nM]	IC50 [2] [nM]	IL17AF HEK Blue pIC50 [2]
CCn1nccc1C(=O)N[C@H](C(=O)Nc1ccc([C@H](C)[C@@H](NC(=O)[C@@H](C)F)C(=O)N2CCNC(CF)C2)cc1F)C(C1CC1)C1CC1 (single isomer, unassigned) [Compound 303]	10 to 100	100 to 10000	
CCOC(=O)N[C@@H](CF)C(=O)N[C@@H](C(=O)N1CCN(C)[C@H](C)C1)[C@@H](C)c1ccc(NC(=O)[C@@H](NC(=O)c2nonc2C)C(C2CC2)C2CC2)c(F)c1 [Compound 363]	< 10	10 to 100	
COC(=O)N1CC[C@H]1C(=O)N[C@@H](C(=O)N1CCN(C)CC1)[C@@H](C)c1ccc(NC(=O)[C@@H](NC(=O)C2(F)CC2)C(C2CC2)C2CC2)c(F)c1 [Compound 277]	10 to 100	100 to 10000	
CCOC(=O)N1CC[C@H]1C(=O)N[C@@H](C(=O)N1CCN(C)[C@H](C)C1)[C@@H](C)c1ccc(NC(=O)[C@@H](NC(=O)C2(F)CC2)C(C2CC2)C2CC2)c(F)c1 [Compound 275]	< 10	100 to 10000	
CCC(=O)N[C@@H](C(=O)N1CCN(C)[C@H](C)C1)[C@@H](C)c1ccc(NC(=O)[C@@H](NC(=O)c2nonc2C)C(C2CC2)C2CC2)c(F)c1 [Compound 246]	< 10	100 to 10000	
CCn1nccc1C(=O)N[C@H](C(=O)Nc1ccc([C@H](C)[C@@H](NC(=O)C(C)(F)F)C(=O)N2CCN(C)[C@H](C)C2)cc1F)C(C1CC1)C1CC1 [Compound 292]	< 10	10 to 100	
CCOC(=O)N[C@@H](CF)C(=O)N[C@@H](C(=O)N1CCN(C)CC1)[C@@H](C)c1ccc(NC(=O)[C@@H](NC(=O)C2(F)CC2)C(C2CC2)C2CC2)c(F)c1 [Compound 359]	< 10	100 to 10000	
CCn1nccc1C(=O)N[C@H](C(=O)Nc1ccc([C@H](C)[C@@H](NC(=O)[C@H](C)OC)C(=O)N2C[C@H]3C[C@@H](C2)N3C)cc1F)C(C1CC1)C1CC1 [Compound 307]	10 to 100	100 to 10000	
CO[C@@H](C)C(=O)N[C@@H](C(=O)N1CCN(C)CC1)[C@@H](C)c1ccc(NC(=O)[C@@H](NC(=O)c2nonc2C)C(C2CC2)C2CC2)c(F)c1 [Compound 347]	< 10	100 to 10000	
CCOC(C)C(=O)N[C@@H](C(=O)N1CCN(C)CC1)[C@@H](C)c1ccc(NC(=O)[C@@H](NC(=O)c2ccnn2CC)C(C2CC2)C2CC2)c(F)c1 (single isomer, unassigned) [Compound 329]	10 to 100	100 to 10000	
CCOC(=O)N1CCC[C@H]1C(=O)N[C@@H](C(=O)N1CCN(C)[C@H](C)C1)[C@@H](C)c1ccc(NC(=O)[C@@H](NC(=O)C2(F)CC2)C(C2CC2)C2CC2)c(F)c1 [Compound 279]	< 10	100 to 10000	
CCn1nccc1C(=O)N[C@H](C(=O)Nc1ccc(C(C(NC(=O)[C@H](C)OC)C(=O)N2CCN(C)[C@H](C)C2)C(F)(F)F)cc1F)C(C1CC1)C1CC1 (single isomer, unassigned) [Compound 355]	100 to 10000	100 to 10000	
CCC(OC)C(=O)N[C@@H](C(=O)N1CCN(C)[C@H](C)C1)[C@@H](C)c1ccc(NC(=O)[C@@H](NC(=O)C2(F)CC2)C(C2CC2)C2CC2)c(F)c1 (single isomer, unassigned) [Compound 337]	< 10		C (7>C≥5)
CCn1nccc1C(=O)N[C@H](C(=O)Nc1ccc([C@H](C)[C@@H](NC(=O)C(C)C(F)(F)F)C(=O)N2CCN(C)[C@H](C)C2)cc1F)C(C1CC1)C1CC1 (single isomer, unassigned) [Compound 326]	10 to 100	100 to 10000	
CO[C@@H](C)C(=O)N[C@@H](C(=O)N1CCN(C)CC1)[C@@H](C)c1ccc(NC(=O)[C@@H](NC(=O)c2ccnn2C2CC2)C(C2CC2)C2CC2)c(F)c1 [Compound 341]	< 10	100 to 10000	
C[C@@H](c1ccc(NC(=O)[C@@H](NC(=O)C2(F)CC2)C(C2CC2)C2CC2)c(F)c1)[C@@H](NC(=O)N(C)C1CC1)C(=O)N1C[C@H]2CC[C@@H](C1)N2C [Compound 295]	< 10	100 to 10000	
CO[C@@H](C)C(=O)N[C@@H](C(=O)N1CCN(C)C[C@@H]1C)[C@@H](C)c1ccc(NC(=O)[C@@H](NC(=O)C2(F)CC2)C(C2CC2)C2CC2)c(F)c1 [Compound 285]	10 to 100	100 to 10000	
CCC(=O)N[C@@H](C(=O)N1CCNC(CF)C1)[C@@H](C)c1ccc(NC(=O)[C@@H](NC(=O)c2nonc2CC)C(C2CC2)C2CC2)c(F)c1 (single isomer, unassigned) [Compound 304]	< 10	100 to 10000	
